Data set [1] can be described thus: Plaque inhibition assay of sera from dosed mice (biological assay of antiviral activity in serum). The format is cell-based, Herpes simplex type 1 virus. The following applies: Experiment 1, single 100 mg/kg dose of BVDU, mouse serum, read-out: Antiviral activity in serum (BVDU equiv (µg/mL) ± Standard Deviation). The procedure: (§1) A single 100 mg/kg dose of BVDU, alone or in combination with 100 mg/kg or 200 mg/kg of probenecid, was administered as a suspension in carboxymethyl cellulose'to groups of 3 starved female Balb/c mice. Blood was collected at 30, 75 (or 85) and 120 minutes after dosing and the serum separated and stored at -20°C.
(§2) Heat inactivated sera from single mice were titrated in plaque inhibition assays using the KOS strain of Herpes simplex type 1 virus in Vero cell monolayers. Antiviral activity is calculated by extrapolation from a standard inhibition dose response curve for BVDU and is quoted as the equivalent concentration of BVDU (in pg/mL) giving the same activity in cell culture.
(§3) Mice dosed with BVDU and serum assayed at 30 and 85 minutes atter drug administration.

A short description of data set [2]: HPLC assay of BVDU, BVDU metabolite and probenecid in mouse serum. The format is in vivo, female Balb/c mice. The following applies: for concentration at 1.25 h: Experiment 2, 75 mins after dosing; for concentration at 2 h: Experiment 2, 120 mins after dosing. The procedure:
as §1
Instrument: Waters H.P.L.C. Column: RCM 100 C18 Reverse Phase Radical Compression Column Solvents: Solvent (A) 0.05M Ammonium Acetate at pH4.5 Solvent (B) 80% Methanol, 10% Water, 10%(A) Conditions: 50% (B) Detector wavelength: 250 mp Solvent Flow: 1 and 3 mL/min.
Mouse serum samples (90 pL each) were treated with 16% aqueous trichloroacetic acid solution (90 µL) to deposit all proteins and the samples spun down using a micro centrifuge. The supernatant portions were assayed by injection (20 µL) into a reverse phase HPLC column). […] Under these conditions, the BVDU metabolite had retention time of 10.8 min and BVDU 11.6 min. The amounts of BVDU and Probenecid were calculated by comparison with an injected known amount of.each drug. The amounts of BVDU metabolite were calculated by assuming the same detector response as BVDU. All calculations were then extrapolated to give the amount of each component present in each serum sample in pg/mL.
as §3
Mice dosed with BVDU or combinations of BVDU and Probenecid and the serum assayed by HPLC at 30, 75 and 120 minutes after drug administration.

Data set [3] can be described thus: Detection of BVDU and metabolite in urine of the dosed animals. The data set is classed as in vivo, mice.
For data set [4], the system named is herpes simplex virus type 1 (strain SC-16). The experiment in a line: Mouse ear herpesvirus model (virus replication and ear inflammation). The data set is classed as in vivo, female Balb/c mice. The following applies: for Virus titre (log10 p.f.u./ear) / Difference in ear thickness between uninfected and infected ears (mm x 10^-2): oral 3 x daily day 0 to day 4, BVDU 100mg/kg/dose or BVDU/Probenecid 100/200mg/kg/dose. The procedure:
1. Mouse Ear Herpesvirus Model (Reference, H.J. Field, Antimicrob. Ag. Chemother., 21, 744 (1982))
This model is based upon comparisons of viral replication in, and intlammation of, the ears of untreated or treated mice atter infection with herpesvirus.
The left pinna of female Balb/c mice were infected intradermally with 10^5 PFU of herpes simplex virus type 1 (strain SC-16) suspended in 2U^gl of Eagle minimum essential medium. The mice were treated orally 3 times daily from the time of infection until day +4 with BVDU at 100mg/kg/dose or a 1:2 mixture of BVDU and probenecid (100/200mg/kg/dose). At selected times after infection groups of three mice were killed and the ear thickness of both the left and right ears measured using a micrometer gauge. The left ears were then removed and placed individually into 3ml of phosphate buffered saline. Samples were homogenised and sonicated. After centrifugation the supernatant was removed and assayed immediately in a plaque assay in Vero cells.

The test system is the same in data set [5]. The experiment in a line: Hairless mouse cutaneous herpesvirus model (lesion scoring). The following applies: each x one mouse, BVDU 100mg/kg or BVDU/Probenecid 100/200mg/kg. The format is in vivo, adult hairless (HrHr) female mice. The procedure: When hairless mice are infected with herpesvirus by dermal scaritication, vesicles appear at the site ot inoculation b days later. These rapidly coalesce to form a spreading unilateral lesion involving one hind quarter, leading eventually to ascending paralysis and death. The ettect ot treatments is assessed by a scoring method as lesions develop.
uroups ot lu adult hairless (HrHr) female mice were anaesthetized using ether and then infected with herpes simplex virus type 1 (strain SC-16) by scarifying an area =1cm^2 at a site parallel with the top of the left hind limb, just below the midline, and introducing a drop ot virus-containing solution to tnis site. single dally doses ot placebo, Bvuu (100mg/kg/dose) or a 1:2 mixture or BVDU and probenecid (100/200mg/kg/dose) were administered orally for seven days, commencing 24 hours after intection. From 4 days atter infection individual mice were examined daily and scored according to the severity ot infection.

The subject of data set [6] is KOS strain of Herpes simplex type 1 virus in Vero cell monolayers. The experiment in a line: Plaque inhibition assay of sera from dosed mice (biological assay of antiviral activity in serum). The format is cell-based. The following applies: inferred from comparison of serum bioassay with HPLC levels of BVDU and metabolite. The procedure:
as §1, §2, §3

Where [7] appears, read: mouse, in vivo, 100 mg/kg, single dose, BVDU 100 mg/kg alone or with probenecid 100 or 200 mg/kg, read-out: Concentration (µg/mL) in Serum BVDU.
[8] abbreviates: Day +8, single daily oral doses for seven days.
Setting [9] is: Day +11, single daily oral doses for seven days.
Setting [10] is: single dose, probenecid 200 mg/kg alone or 100 or 200 mg/kg with BVDU 100 mg/kg, read-out: Concentration (µg/mL) in Serum Probenecid.

Where two headings read alike, the source gives them in different places.

`O=c1[nH]c(=O)n([C@H]2C[C@H](O)[C@@H](CO)O2)cc1/C=C/Br` [BVDU, E-5-(2-bromovinyl)-2'-deoxyuridine]: the concentration at 0.5 h in data set [1] (30 mins after dosing) is 39.8 ± 10.6 µg/mL; in data set [2] (in vivo, Experiment 2, 30 mins after dosing, single dose, BVDU 100 mg/kg alone or with probenecid 100 or 200 mg/kg (dose in brackets in label), read-out: Concentration (µg/mL) in Serum BVDU) it was 26.1 µg/mL; in data set [2] (mouse, in vivo, 100 mg/kg, Experiment 1, 30 mins after dosing, single 100 mg/kg dose of BVDU, read-out: HPLC Determinations BVDU Conc (µg/mL) in serum), 38 µg/mL. Besides, the concentration at 85 min was determined as 4.7 ± 1.4 µg/mL in data set [1] (85 mins after dosing) and 3.9 µg/mL in data set [2] (mouse, in vivo, 100 mg/kg, Experiment 1, 85 mins after dosing, single 100 mg/kg dose of BVDU, read-out: HPLC Determinations BVDU Conc (µg/mL) in serum). Besides, the concentration at 1.25 h in data set [2] (setting [7]) is 13 µg/mL. In data set [2] (setting [7]), the concentration at 2 h is 3.6 µg/mL. In data set [3], the “detected in the urine” value is “only BVDU and none of the metabolite was detected in the urine”. Besides, the “Virus titre (log10 p.f.u./ear)” value in data set [4] (Experiment A, day 1 post inoculation) was found to be 3.5 log10 p.f.u./ear; in data set [4] (Experiment A, day 2 post inoculation), 3.0 log10 p.f.u./ear; in data set [4] (Experiment A, day 3 post inoculation), 2.9 log10 p.f.u./ear; in data set [4] (Experiment A, day 4 post inoculation) it was 3.3 log10 p.f.u./ear; in data set [4] (Experiment A, day 7 post inoculation), 1.3 log10 p.f.u./ear; in data set [4] (Experiment B, day 1 post inoculation), 4.1 log10 p.f.u./ear. In addition, the “Virus titre (log10 p.f.u./ear)” value was found to be 3.0 log10 p.f.u./ear in data set [4] (Experiment B, day 2 post inoculation); 3.3 log10 p.f.u./ear in data set [4] (Experiment B, day 3 post inoculation); 3.9 log10 p.f.u./ear in data set [4] (Experiment B, day 4 post inoculation); 0 log10 p.f.u./ear in data set [4] (Experiment B, day 7 post inoculation). In addition, the “Difference in ear thickness between uninfected and infected ears (mm x 10^-2)” value in data set [4] (day 1 post inoculation) amounted to 10.1 mm x 10^-2; in data set [4] (day 2 post inoculation) it was 14.2 mm x 10^-2; in data set [4] (day 3 post inoculation) it was 13.4 mm x 10^-2; in data set [4] (day 4 post inoculation), 15.1 mm x 10^-2; in data set [4] (day 7 post inoculation) it was 20.7 mm x 10^-2; in data set [4] (day 8 post inoculation), 20.8 mm x 10^-2. For the same compound, the “Difference in ear thickness between uninfected and infected ears (mm x 10^-2)” value in data set [4] (day 9 post inoculation) is given as 20.2 mm x 10^-2; in data set [4] (day 11 post inoculation) it was 16.1 mm x 10^-2; in data set [4] (day 12 post inoculation) it was 14.0 mm x 10^-2; in data set [4] (day 14 post inoculation) it was 10.1 mm x 10^-2. In addition, the ear thickness result in data set [4] (oral 3 times daily until day +4, BVDU 100mg/kg/dose or 1:2 mixture 100/200mg/kg/dose) is “no ettect”. Besides, the “Mice with lesion score 2 (Scab at infection site)” value in data set [5] (Day +4, single daily oral doses for seven days from 24 hours after infection) is reported as “xxxxxxx”. In addition, in data set [5] (Day +4, single daily oral doses for seven days), the “Mice with lesion score 1 (1° Vesicles)” value is on record as “xxx”. For the same compound, the “Mice with lesion score 5 (Severe spreading)” value in data set [5] (setting [8]) is “xxxxxxx”; in data set [5] (setting [9]), “xxx”. Moreover, the “Mice with lesion score 7 (Death)” value was “xx” in data set [5] (setting [8]) and “xxxx” in data set [5] (setting [9]). In addition, the “Mice with lesion score 4 (Spreading)” value in data set [5] (setting [9]) is reported as “xx”.

For `O=c1[nH]cc(/C=C/Br)c(=O)[nH]1` [BVDU Metabolite], the antiviral activity result in data set [6] is reported as “no significant antiviral activity”.

`CCCN(CCC)S(=O)(=O)c1ccc(C(=O)O)cc1` [Probenecid]: the concentration at 0.5 h in data set [2] (Experiment 2, 30 mins after dosing, single dose, probenecid 200 mg/kg alone or 100 or 200 mg/kg with BVDU 100 mg/kg, read-out: Concentration (µg/mL) in Serum Probenecid) stood at 3.8 µg/mL. Moreover, in data set [2] (setting [10]), the concentration at 1.25 h was 3.2 µg/mL and the concentration at 2 h worked out at 2.3 µg/mL.

Source of the values: patent publication EP0082667A1, “Pharmaceutical compositions” (BEECHAM GROUP PLC, priority 1981, dated 1983).
